Results: US4153710A, “N-(4-[2-(pyrazole-1-carbonamide)-ethyl]-benzenesulphonyl)-urea” (Starogardzkie Zaklady Farmaceutyczne POLFA, priority 1976, dated 1979)

Experiments:
[1] = system: oxidizing phosphorylation in mitochondria of a rat's liver; test: Oxidizing phosphorylation of rat liver mitochondria; type: biochemical
Procedure: 2-oxoglutaran 2 mM, ADP 1 mM, mitochondria | protein 4 mg/m. […] The | oxidizing phosphorylation speed was determined by means of the measuremen | of hydrogen ion consumption. The calcium transmission to mitochondria was […]

[2] = system: blood-glucose concentration; test: Decrease in blood-glucose concentration in rats after oral dose (Table 1; ED30 rats Table 2); type: in vivo; conditions: Rattus norvegicus, oral, read-out: Effective oral doses ED30
Text: (§1) The hypoglycemic activity of N-{4-[2-(pyrazole-1-carbonamide)-ethyl]-benzenesulphonyl}-ureas prepared according to the present invention can be noticed after their oral administration to mice, rats, rabbits and people and when determining the glucose concentration in blood with a known enzymatic method using glucose oxidase.
The exemplary comparison of effective doses (ED30) and the effect of oral dose size of the compounds prepared according to the present invention with Glibornuride, which is distinguished by its high effectiveness and good tolerance when administered to people, on the glucose concentration in the blood of rats, is given in Table 1.

[3] = system: free fatty acids concentration; test: Free fatty acids in normal men volunteers (Table 7); type: in vivo; conditions: oral 5 mg SPC-5002 or 12.5 mg Glibornuride
Procedure: (§2) When administered to normal men volunteers it has been stated that 60 minutes after the administration of SPC-5002 a 5 mg oral dose causes the decrease in blood-glucose of 28% in comparision to the starting value and after 90 minutes it reaches 33% (Table 7). Whereas Glibornuride employed in a dose 2.5 times as big on peak of its activity decreases the glucose blood level only of 19%. It can clearly be noticed that there is a positive correlation between the glycemic and insulin level curves. Both examined preparations cause a significant decrease in free fatty acids in blood. […] 60 and 90 minutes after the SPC-5002 administration, the blood-glycose level is decreased to 33 and 52% while in the Placebo group it is maintained in the range of 13-14%.
(§3) The comparison of glucose, insulin and free fatty acids concentration in
(§4) normal men after the oral administration of 5 mg of SPC-5002 or 12.5 mg

[4] = system: blood-glucose concentration; test: Blood-glucose time course up to 24 hours in rabbits (Table 4); type: in vivo; conditions: oral 5 mg/kg
Procedure: The hypoglycemic activity of N-{4-[2-(pyrazole-1-carbonamide)-ethyl]-benzenesulphonyl}-ureas prepared according to the present invention can be noticed after their oral administration to mice, rats, rabbits and people and when determining the glucose concentration in blood with a known enzymatic method using glucose oxidase. […]
(§5) The comparison of SPC-5002 and Glibornuride effect on changes in
concentration of rabbits in time up to 24 hours from the moment of the
in an oral dose containing 5 mg/kg body weight

[5] = system: insulin concentration; test: Insulin in normal men volunteers (Table 7); type: in vivo; conditions: oral 5 mg SPC-5002 or 12.5 mg Glibornuride
Procedure: as §2, §3, §4

[6] = system: calcium transmission in mitochondria of a rat's liver; test: Calcium transmission to rat liver mitochondria; type: biochemical; conditions: for % of inhibition, calcium transmission: medium with CaCl 300 nmoles/ml
Procedure: Sucrose 170mM, KCl 10 mM, MgCl2 […], K2 HPO 5 mM, EGTA 0.01 mM
2-oxoglutaran 2 mM, ADP 1 mM, mitochondria
protein 4 mg/m. Temperature 25° C.
of hydrogen ion consumption. The calcium transmission to mitochondria was
studied with two methods; in a continuous way with a Radiometer calcium
electrode type F2112 or with an isotopic method.
*The medium contained Ca Cl 300 nmoles/ml.

[7] = system: oxygen consumption in mitochondria of a rat's liver; test: Oxygen consumption of rat liver mitochondria; type: biochemical
Procedure: 2-oxoglutaran 2 mM, ADP 1 mM, mitochondria | protein 4 mg/m. […] The

[8] = system: blood-glucose concentration; test: Blood-glucose time course up to 24 hours in rats (Table 3); type: in vivo; conditions: for glucose concentration in blood, average: oral 4 mg/kg
Procedure: as §1
(§6) (Table 2). […] It has been observed that even 9 hours after the administration of one dose of SPC-5002 to rats, the glucose level in blood was decreased, whereas in the case of Glibornuride the glucose level comes back to its normal value in 6 hours from the time of the administration.
as §5
concentration of rats in time up to 24 hours from the moment of the
in an oral dose containing 4 mg/kg body weight

[9] = system: glucose concentration; test: Blood glucose in normal men volunteers (Table 7); type: in vivo; conditions: for Glucose concentration: oral 5 mg SPC-5002 or 12.5 mg Glibornuride
Procedure: as §1, §2, §3, §4

[10] = system: blood-glucose concentration; test: ED30 oral hypoglycemic dose in mice (Table 2); type: in vivo
Procedure: as §1, §6

[11] = system: blood-glucose concentration; test: ED30 oral hypoglycemic dose in rabbits (Table 2); type: in vivo; conditions: Oryctolagus cuniculus, read-out: Effective oral doses ED30
Procedure: as §1, §6

In the case of `Cc1ccc(S(=O)(=O)NC(=O)N[C@H]2[C@H]3CC[C@@](C)([C@H]2O)C3(C)C)cc1` [Glibornuride, N-(p-toluenesulphonyl)-N'-(2-endo-hydroxy-3-endo-bornyl)-urea, reference compound], the “% of inhibition, oxidizing phosphorylation” value ([1]; concentration 0.5 n M) is reported as 32%, the “% of inhibition, oxidizing phosphorylation” value ([1]; concentration 1.0 n M) is reported as 59% and the Ki ([1]; rat liver mitochondria) is reported as 760 µM. The ED30 [2] was 3.8 mg/kg, the “Free fatty acids concentration” value ([3]; 0 mins (empty stomach)) was 0.76 mEq/1000 cc and the “Free fatty acids concentration” value ([3]; 30 mins) was 0.58 mEq/1000 cc. For the same molecule, the “Free fatty acids concentration” value ([3]; 60 mins) was 0.46 mEq/1000 cc, the “Free fatty acids concentration” value ([3]; 90 mins) was 0.48 mEq/1000 cc and the “Free fatty acids concentration” value ([3]; 120 mins) was 0.51 mEq/1000 cc. For the same molecule, the “Free fatty acids concentration” value ([3]; 180 mins) was 0.52 mEq/1000 cc, the “glucose concentration in blood, average” value ([4]; 0 h) was 74 mg/100 cc and the “glucose concentration in blood, average” value ([4]; 0.5 h) was 62 mg/100 cc. For the same molecule, the “glucose concentration in blood, average” value ([4]; 1 h) was 63 mg/100 cc, the “% of decrease /-/ or increase /+/ of blood glucose” value ([4]; 3 h) was 0% and the “glucose concentration in blood, average” value ([4]; 3 h) was 74 mg/100 cc. The “glucose concentration in blood, average” value ([4]; 6 h) was 75 mg/100 cc, the “glucose concentration in blood, average” value ([4]; 9 h) was 75 mg/100 cc and the “glucose concentration in blood, average” value ([4]; 24 h) was 78 mg/100 cc. It also gave an Insulin concentration ([5]; 0 mins (empty stomach)) of 3.6 μU/cc, an Insulin concentration ([5]; 30 mins) of 4.2 μU/cc and an Insulin concentration ([5]; 60 mins) of 6.2 μU/cc. For the same molecule, the Insulin concentration ([5]; 90 mins) was 5.2 μU/cc, the Insulin concentration ([5]; 120 mins) was 6.4 μU/cc and the Insulin concentration ([5]; 180 mins) was 4.4 μU/cc. For the same molecule, the “Calcium transmission / Oxide consumption (ratio of inhibition)” value ([6]; concentration 0.5 n M) was 2.36, the “% of inhibition, calcium transmission” value ([6]; concentration 0.5 n M) was 52% and the “Calcium transmission / Oxide consumption (ratio of inhibition)” value ([6]; concentration 1.0 n M) was 1.60. For the same molecule, the “% of inhibition, calcium transmission” value ([6]; concentration 1.0 n M) was 76%, the Ki ([6]; rat liver mitochondria) was 490 µM and the “preference of inhibition: calcium transmission versus oxidizing processes” value ([6]; rat liver mitochondria) was “preferential inhibiting of calcium transmission”. For the same molecule, the “% of inhibition, oxygen consumption” value ([7]; concentration 0.5 n M) was 22%, the “% of inhibition, oxygen consumption” value ([7]; concentration 1.0 n M) was 47% and the Ki ([7]; rat liver mitochondria) was 1150 µM. For the same molecule, the “duration of decreased blood glucose after one dose” value ([8]; one dose) was 6 h, the “glucose concentration in blood, average” value ([8]; 0 h) was 68 mg/100 cc and the “glucose concentration in blood, average” value ([8]; 1 h) was 48 mg/100 cc. The “glucose concentration in blood, average” value ([8]; 3 h) was 47 mg/100 cc, the “glucose concentration in blood, average” value ([8]; 6 h) was 65 mg/100 cc and the “glucose concentration in blood, average” value ([8]; 9 h) was 74 mg/100 cc. For the same molecule, the “glucose concentration in blood, average” value ([8]; 24 h) was 77 mg/100 cc, the “decrease in glucose blood level at peak of activity” value ([9]; dose 2.5 times that of SPC-5002 (12.5 mg)) was 19% and the Glucose concentration ([9]; 0 mins (empty stomach)) was 91.0 mg/100 cc. It also gave a Glucose concentration ([9]; 30 mins) of 87.0 mg/100 cc, a Glucose concentration ([9]; 60 mins) of 80.0 mg/100 cc and a Glucose concentration ([9]; 90 mins) of 74.0 mg/100 cc. The Glucose concentration ([9]; 120 mins) was 75.0 mg/100 cc, the Glucose concentration ([9]; 180 mins) was 76.0 mg/100 cc and the “ED30 relative to SPC-5002” value [10] was “almost three times as big as for SPC-5002”. For the same molecule, the ED30 ([10]; Mus musculus, oral, read-out: Effective oral doses ED30) was 5.2 mg/kg and the ED30 [11] was 7.6 mg/kg.
